The results in this text go back to ChEMBL document CHEMBL3044907, “Sensitivity of Fusarium verticillioides isolates from rice to a novel cyanoacrylate fungicide” (Crop Prot, 2012).

Data set [1] deals with Fusarium verticillioides. Briefly: Fungicidal activity against Fusarium verticilliodes isolate N03 in rice seeds harvested from bakane diseased plants assessed as number of seedlings abnormally elongated or exhibiting symptoms of damping-off at 8.33 ug/ml at 30 degC incubated for 72 hr measured after 3 days under greenhouse trials (reference value: 36.1%). The data set is classed as functional.

Data set [2] relates to Fusarium verticillioides. Briefly: Fungicidal activity against Fusarium verticilliodes isolate N04 in rice seeds harvested from bakane diseased plants assessed as number of seedlings abnormally elongated or exhibiting symptoms of damping-off at 8.33 ug/ml at 30 degC incubated for 72 hr measured after 3 days under greenhouse trials (reference value: 14.5%). The data set is classed as functional.

Data set [3] has as its system Fusarium verticillioides. The experiment in a line: Fungicidal activity against Fusarium verticilliodes isolate YZ26 in rice seeds harvested from bakane diseased plants assessed as number of seedlings abnormally elongated or exhibiting symptoms of damping-off at 25 ug/ml at 30 degC incubated for 72 hr measured after 3 days under greenhouse trials (reference value: 49.3%). It counts as functional.

Data set [4] has as its system Fusarium verticillioides. Briefly: Fungicidal activity against Fusarium verticilliodes isolate N03 in rice seeds harvested from bakane diseased plants assessed as number of seedlings abnormally elongated or exhibiting symptoms of damping-off at 12.5 ug/ml at 30 degC incubated for 72 hr measured after 3 days under greenhouse trials (reference value: 36.1%). The data set is classed as functional.

The test system of data set [5] is Fusarium verticillioides. Briefly: Fungicidal activity against Fusarium verticilliodes isolate JS07 in rice seeds harvested from bakane diseased plants assessed as number of seedlings abnormally elongated or exhibiting symptoms of damping-off at 12.5 ug/ml at 30 degC incubated for 72 hr measured after 3 days under greenhouse trials (reference value: 33.8%). The data set is classed as functional.

Another data set has as its system Oryza sativa. Briefly: Effect on emergence of healthy Oryza sativa (rice) seedlings measured after seeds germinated. It counts as ADME, organism-based. Particulars: in vivo.
Data set [6] deals with Fusarium verticillioides. Briefly: Fungicidal activity against Fusarium verticilliodes isolate YZ26 in rice seeds harvested from bakane diseased plants assessed as number of seedlings abnormally elongated or exhibiting symptoms of damping-off at 12.5 ug/ml at 30 degC incubated for 72 hr measured after 3 days under greenhouse trials (reference value: 49.3%). The data set is classed as functional.

The subject of data set [7] is Fusarium verticillioides. The experiment in a line: Fungicidal activity against Fusarium verticilliodes isolate YZ11 in rice seeds harvested from bakane diseased plants assessed as number of seedlings abnormally elongated or exhibiting symptoms of damping-off at 8.33 ug/ml at 30 degC incubated for 72 hr measured after 3 days under greenhouse trials (reference value: 33.7%). The data set is classed as functional.

Data set [8] has as its system Fusarium verticillioides. The experiment in a line: Fungicidal activity against Fusarium verticilliodes isolate JS08 in rice seeds harvested from bakane diseased plants assessed as number of seedlings abnormally elongated or exhibiting symptoms of damping-off at 12.5 ug/ml at 30 degC incubated for 72 hr measured after 3 days under greenhouse trials (reference value: 13.0%). The data set is classed as functional.

Data set [9] concerns Fusarium verticillioides. The experiment in a line: Fungicidal activity against Fusarium verticilliodes isolate YZ05 in rice seeds harvested from bakane diseased plants assessed as number of seedlings abnormally elongated or exhibiting symptoms of damping-off at 12.5 ug/ml at 30 degC incubated for 72 hr measured after 3 days under greenhouse trials (reference value: 33.3%). The data set is classed as functional.

The subject of data set [10] is Fusarium verticillioides. The experiment in a line: Fungicidal activity against Fusarium verticilliodes isolate JS08 in rice seeds harvested from bakane diseased plants assessed as number of seedlings abnormally elongated or exhibiting symptoms of damping-off at 6.25 ug/ml at 30 degC incubated for 72 hr measured after 3 days under greenhouse trials (reference value: 13.0%). The data set is classed as functional.

The test system of data set [11] is Fusarium verticillioides. Briefly: Fungicidal activity against Fusarium verticilliodes isolate JS09 in rice seeds harvested from bakane diseased plants assessed as number of seedlings abnormally elongated or exhibiting symptoms of damping-off at 12.5 ug/ml at 30 degC incubated for 72 hr measured after 3 days under greenhouse trials (reference value: 32.6%). It counts as functional.

Data set [12] relates to Fusarium verticillioides. Briefly: Fungicidal activity against Fusarium verticilliodes isolate JS09 in rice seeds harvested from bakane diseased plants assessed as number of seedlings abnormally elongated or exhibiting symptoms of damping-off at 8.33 ug/ml at 30 degC incubated for 72 hr measured after 3 days under greenhouse trials (reference value: 32.6%). The data set is classed as functional.

The test system of data set [13] is Fusarium verticillioides. Briefly: Fungicidal activity against Fusarium verticilliodes isolate N02 in rice seeds harvested from bakane diseased plants assessed as number of seedlings abnormally elongated or exhibiting symptoms of damping-off at 6.25 ug/ml at 30 degC incubated for 72 hr measured after 3 days under greenhouse trials (reference value: 41.2%). It counts as functional.

For data set [14], the system named is Fusarium verticillioides. The experiment in a line: Fungicidal activity against Fusarium verticilliodes isolate YZ06 in rice seeds harvested from bakane diseased plants assessed as number of seedlings abnormally elongated or exhibiting symptoms of damping-off at 8.33 ug/ml at 30 degC incubated for 72 hr measured after 3 days under greenhouse trials (reference value: 45.3%). It counts as functional.

The test system of data set [15] is Fusarium verticillioides. The experiment in a line: Fungicidal activity against Fusarium verticilliodes isolate YZ07 in rice seeds harvested from bakane diseased plants assessed as number of seedlings abnormally elongated or exhibiting symptoms of damping-off at 12.5 ug/ml at 30 degC incubated for 72 hr measured after 3 days under greenhouse trials (reference value: 43.2%). It counts as functional.

In data set [16] the test system is Fusarium verticillioides. The experiment in a line: Fungicidal activity against Fusarium verticilliodes isolate YZ04 in rice seeds harvested from bakane diseased plants assessed as number of seedlings abnormally elongated or exhibiting symptoms of damping-off at 12.5 ug/ml at 30 degC incubated for 72 hr measured after 3 days under greenhouse trials (reference value: 44.2%). The data set is classed as functional.

Data set [17] has as its system Fusarium verticillioides. Briefly: Fungicidal activity against Fusarium verticilliodes isolate YZ03 in rice seeds harvested from bakane diseased plants assessed as number of seedlings abnormally elongated or exhibiting symptoms of damping-off at 25 ug/ml at 30 degC incubated for 72 hr measured after 3 days under greenhouse trials (reference value: 21.3%). It counts as functional.

Data set [18] deals with Fusarium verticillioides. Briefly: Fungicidal activity against Fusarium verticilliodes isolate JS05 in rice seeds harvested from bakane diseased plants assessed as number of seedlings abnormally elongated or exhibiting symptoms of damping-off at 8.33 ug/ml at 30 degC incubated for 72 hr measured after 3 days under greenhouse trials (reference value: 36.4%). It counts as functional.

The test system of data set [19] is Fusarium verticillioides. The experiment in a line: Fungicidal activity against Fusarium verticilliodes isolate YZ11 in rice seeds harvested from bakane diseased plants assessed as number of seedlings abnormally elongated or exhibiting symptoms of damping-off at 25 ug/ml at 30 degC incubated for 72 hr measured after 3 days under greenhouse trials (reference value: 33.7%). The data set is classed as functional.

For data set [20], the system named is Fusarium verticillioides. The experiment in a line: Fungicidal activity against Fusarium verticilliodes isolate N05 in rice seeds harvested from bakane diseased plants assessed as number of seedlings abnormally elongated or exhibiting symptoms of damping-off at 8.33 ug/ml at 30 degC incubated for 72 hr measured after 3 days under greenhouse trials (reference value: 6.2%). It counts as functional.

Data set [21] concerns Fusarium verticillioides. The experiment in a line: Fungicidal activity against Fusarium verticilliodes isolate N05 in rice seeds harvested from bakane diseased plants assessed as number of seedlings abnormally elongated or exhibiting symptoms of damping-off at 6.25 ug/ml at 30 degC incubated for 72 hr measured after 3 days under greenhouse trials (reference value: 6.2%). The data set is classed as functional.

The test system of data set [22] is Fusarium verticillioides. The experiment in a line: Fungicidal activity against Fusarium verticilliodes isolate JS01 in rice seeds harvested from bakane diseased plants assessed as number of seedlings abnormally elongated or exhibiting symptoms of damping-off at 6.25 ug/ml at 30 degC incubated for 72 hr measured after 3 days under greenhouse trials (reference value: 32.5%). It counts as functional.

Data set [23] relates to Fusarium verticillioides. Briefly: Fungicidal activity against Fusarium verticilliodes in rice seeds harvested from bakane diseased plants assessed as mycelial growth inhibition at 25 degC after 3 to 5 days. The data set is classed as functional, organism-based.

In brackets after ≈: the same amount, converted by molar mass.

Usually EC50 stands for the concentration needed to bring the measured effect to its halfway point. As for `CCOC(=O)/C(C#N)=C(/N)c1ccccc1`, the Activity with Fusarium verticillioides [1] is 0%; in the data set with Fusarium verticillioides [2], 0%; in the data set with Fusarium verticillioides [3] it was 0.2%; in the data set on Fusarium verticillioides [4], 0%; in the data set with Fusarium verticillioides [5] it was 0%; in the data set with Oryza sativa it was “Non-toxic”. The Activity was found to be 0% in the data set on Fusarium verticillioides [6]; 0.8% with Fusarium verticillioides [7]; 0% with Fusarium verticillioides [8]; 0% with Fusarium verticillioides [9]; 3.6% in the data set on Fusarium verticillioides [10]; 0% with Fusarium verticillioides [11]. Besides, the Activity is recorded as 1.2% in the data set on Fusarium verticillioides [12]; 2.2% in the data set with Fusarium verticillioides [13]; 0% in the data set with Fusarium verticillioides [14]; 0% in the data set on Fusarium verticillioides [15]; 0% in the data set with Fusarium verticillioides [16]; 0% with Fusarium verticillioides [17]. Further, the Activity with Fusarium verticillioides [18] was 0.2%; in the data set on Fusarium verticillioides [19], 0%; in the data set on Fusarium verticillioides [20], 0%; in the data set on Fusarium verticillioides [21], 0.4%; in the data set on Fusarium verticillioides [22] it was 1.6%. Also, the EC50 with Fusarium verticillioides [23] is 0.379 µg/mL (≈ 1.75 µM).
